{"source": "patent US10166279B2", "about": "“Vaccine” (Bergen Teknologioverføring AS, priority 2013, dated 2019)", "key": {"anti-STh mAb ST:G8": {"test_system": "anti-STh mAb ST:G8", "assay": "Competitive ELISA with anti-STh antibodies (polyclonal, mAb ST:G8)", "assay_type": "binding", "conditions": "polyclonal and monoclonal (ST:G8) anti-STh antibodies", "method": "Competitive STh ELISA was performed as previously described (PMID: 6520401; Lockwood and Robertson, J Immunol Methods. 1984 Dec. 31; 75(2):295-307) with minor modifications. A U-shaped microtiter plate (Linbro, Fisher Scientific, Göteborg, Sweden) was coated with STh-ovalbumin conjugate diluted in ELISA buffer (NaCl 128 mM, KCl 2.68 mM, KH2PO4 1.47 mM, Na2HPO4 8.10 mM; pH 7.0-7.2). The plate was covered with plate sealer and incubated overnight at 37° C. Contents of the wells were discarded by inversion. Additional protein binding sites were blocked by incubating with ovalbumin 1% (w/v) (Sigma-Aldrich) diluted in ELISA buffer. After incubation for 1 h at 37° C., wells were emptied and washed three times with wash buffer (ELISA buffer containing ovalbumin 0.05% (w/v) and Tween-20 0.05% (v/v)). 75 μL of samples containing STh and 75 μL of diluted antisera (Protein-A purified rabbit anti-STa kindly supplied by John D. Clements; Department of Microbiology and Immunology, Tulane University, New Orleans, USA) were added. Both dilutions were done in ELISA buffer containing ovalbumin 0.05% (w/v). Appropriate dilutions and concentrations of reagents were determined by checkerboard titrations. The plate was incubated for 2 h at 37° C., in a rotary incubator shaker (Infors HT, Bottmingen/Basel Switzerland) at 180 rpm. Wells were emptied and washed three times with wash buffer. 100 μL of anti-Rabbit IgG Alkaline Phosphatase Conjugate developed in goat (Sigma-Aldrich) diluted 1:400 in ELISA buffer with ovalbumin 0.05% (w/v) were add and incubated with not shaking for 1 h at 37° C. Wells were emptied and washed three times with wash buffer followed by addition of 100 μL of 4-Nitrophenyl phosphate disodium salt hexahydrate at 1 mg/mL in diethanolamine buffer (diethanolamine 9.7% (v/v), MgCl2×6H2O 0.49 mM; pH 9.8). After incubation for 30 min, the reaction was stopped with 50 μL 2N NaOH (VWR international) in each well. The absorbance was read in an automatic plate reader at 405 nm (FLUOstar OPTIMA; BMG Labtech, Germany). All samples were measured in triplicate.\n(§1) The anti-STh mAb ST:G8 was kindly supplied by S. Visweswariah [Garrett & Visweswariah; PMID: 8950201]. The anti-STp mAbs clone 29, clone 30, and clone 31 were obtained from Fitzgerald Industries International.\nELISA-plates (Nunc Amino Immobilizer) were coated with STh-OvA conjugate in PBS, volume 100 μl per well (synthetic STh conjugated to OvA: For ST:G8 0.04 μl/well, for clone 29 and clone 30 0.01 μl/well). Plates were incubated overnight at 4 C. Subsequently, plates were emptied and blocked with PBS-T 1% OvA for 1h at 20° C. with shaking 180 rpm. […] Developing was stopped by adding 50 μl NaOH 2M to each well, and OD was read at 405 nm with a Fluostar Optima plate reader."}, "anti-STp mAb clone 30": {"test_system": "anti-STp mAb clone 30", "assay": "Competitive ELISA with anti-STp antibodies (polyclonal, mAbs clone 29, 30, 31)", "assay_type": "binding", "conditions": "anti-STp mAb Clone 30, competitive ELISA", "method": "as §1\nELISA-plates (Nunc Amino Immobilizer) were coated with STh-OvA conjugate in PBS, volume 100 μl per well (synthetic STh conjugated to OvA: For ST:G8 0.04 μl/well, for clone 29 and clone 30 0.01 μl/well). Plates were incubated overnight at 4 C. Subsequently, plates were emptied and blocked with PBS-T 1% OvA for 1h at 20° C. with shaking 180 rpm. After washing (3× with PBS-T) a volume of 60 μl of sample and 60 μl of primary antibody dilution was added to wells. Final dilutions of mAbs were as follows: ST:G8 1:6500, clone 29 1:16000, clone 30 1: 30000. Competitive incubation was performed for 90 minutes at 180 rpm, 20 C. Plates were then washed with 3×200 μl PBS-T and incubated at room-temperature for 1h with secondary antibody diluted in PBS-T 100 μl per well (anti-mouse dilution 1:400 for the ST:G8 ELISA, anti-mouse dilution 1:2000 for clone 29 and clone 30 ELISA). After renewed washing with 3×200 μl PBS-T, plates were developed with 100 μl developing buffer for 15-20 minutes. Developing was stopped by adding 50 μl NaOH 2M to each well, and OD was read at 405 nm with a Fluostar Optima plate reader.\nFor the clone 31 mAb a slightly different protocol was developed. […]"}}, "data": [{"substance": "uroguanylin (NDDCELCVNVACTGCL) [endogenous peptide ligand of the GC-C receptor]", "values": [{"measurement": "binding by anti-STh antibodies", "setting": "anti-STh mAb ST:G8", "result": "bound"}, {"measurement": "binding by anti-STp antibodies", "setting": "anti-STp mAb clone 30", "result": "does not cross-react"}]}]}
